The source of these data is patent US8741836B2, “Polypeptides” (Novo Nordisk A/S, priority 2011, dated 2014).

Like-named read-outs stand apart in the source and are kept apart here. Starred links: 1 amine or outer side, 2 acyl side, 3 side chain; linkers in the order of their positions; H or OH if unused. Positions of bridges follow the written chain, without caps; N, C: chain ends. Residues, ends and D or L forms follow the SMILES beside them. Groups on a side chain read outwards from the residue. *: point of attachment. C20 diacid = O=C(O)CCCCCCCCCCCCCCCCCCC(=O)*; γGlu = O=C(O)[C@H](CCC(=O)[*:2])N[*:1] Some results are limits rather than exact numbers.

What is called EC50 is the concentration needed to bring the measured effect to its halfway point. A word on the solubility: it is the dissolved amount per volume that the medium holds.

Data set [1] deals with T1, human calcitonin receptor (Homo sapiens, UniProt P30988).
T1 construct: expressed in transfected cells; CRE-luciferase reporter
T1 sequence (P30988 25-474): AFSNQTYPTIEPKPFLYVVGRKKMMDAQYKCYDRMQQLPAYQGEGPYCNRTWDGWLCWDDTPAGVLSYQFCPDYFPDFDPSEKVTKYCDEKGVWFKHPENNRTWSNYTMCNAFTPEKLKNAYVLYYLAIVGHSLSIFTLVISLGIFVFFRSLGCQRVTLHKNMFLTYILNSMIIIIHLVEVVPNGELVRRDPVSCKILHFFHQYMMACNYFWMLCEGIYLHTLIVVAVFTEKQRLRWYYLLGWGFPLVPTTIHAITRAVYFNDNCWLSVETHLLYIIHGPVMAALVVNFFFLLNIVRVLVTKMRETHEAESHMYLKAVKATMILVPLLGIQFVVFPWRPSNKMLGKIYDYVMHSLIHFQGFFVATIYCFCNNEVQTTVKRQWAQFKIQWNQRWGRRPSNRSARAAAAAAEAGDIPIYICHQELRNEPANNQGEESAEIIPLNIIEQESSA
The data set is described as follows: Assay (II)a functional assay, human calcitonin receptor (CRE luciferase reporter in BHK cells). Type of data set: cell-based. The text has this: (§1) 1. Luciferase Assay Outline
(§2) Activation of calcitonin and amylin (coexpression of calcitonin receptor and receptor activity modifying proteins (RAMP)) receptors lead to increased intracellular concentrations of cAMP. Consequently, transcription is activated by promoters containing multiple copies of the cAMP response element (CRE). It is thus possible to measure amylin activity by the use of a CRE luciferase reporter gene introduced into BHK cells also expressing calcitonin or amylin receptors.
(§3) A BHK570 cell line was stably transfected with the human calcitonin receptor and a CRE-responsive luciferase reporter gene. The cell line was further transfected with RAMP-3, using standard methods. This turns the calcitonin receptor into an amylin 3(a) receptor. Methotrexate, Neomycin, and Hygromycin are selection markers for luciferase, the calcitonin receptor, and RAMP-3, respectively.
(§4) To perform activity assays, BHK calcitonin (a) receptor- or amylin 3(a)-receptor/CRE-luc cells were seeded in white 96 well culture plates at a density of about 20.000 cells/well. […] After incubation overnight at 37° C. and 5% CO2, the growth medium was replaced by 50 μl/well assay medium (DMEM (without phenol red), Glutamax™, 10% FBS, and 10 mM Hepes, pH 7.4). Further, 50 μl/well of standard or sample in assay buffer were added. After 3 hours incubation at 37° C. and 5% CO2, the assay medium with standard or sample were removed and replaced by 100 μl/well PBS. Further, 100 μl/well LucLite™ was added. The plates were sealed and incubated at room temperature for 30 minutes. Finally, luminescence was measured on a TopCounter (Packard) in SPC (single photon counting) mode.

Data set [2] addresses T2, human amylin 3(a) receptor (human calcitonin receptor + RAMP-3) (Homo sapiens, UniProt O60896+P30988).
T2 construct: expressed in transfected cells; CRE-luciferase reporter
T2 sequence (P30988 25-474): T1 sequence (P30988 25-474)
T2 sequence (O60896 24-148 partner): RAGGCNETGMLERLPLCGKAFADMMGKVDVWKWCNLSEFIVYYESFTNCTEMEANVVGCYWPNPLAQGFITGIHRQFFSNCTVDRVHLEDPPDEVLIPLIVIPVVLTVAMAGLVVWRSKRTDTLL
The data set is described as follows: Assay (II)a functional assay, human amylin receptor (CRE luciferase reporter in BHK cells). It counts as cell-based.
Excerpt: as §1, §2, §3, §4
On the technique in general: In a reporter assay the amount or activity of a reporter protein is the signal.

Data set [3] in a line: Assay (IV) determination of solubility. Type of data set: physicochemical. The method, then: Assay (IV)—Determination of Solubility
The polypeptide was dissolved in water at −500 nmol/ml and mixed 1:1 with a series of buffers (100 mM glycylglycine pH 3.0, 100 mM glycylglycine pH 4.0, 100 mM glycylglycine pH 5.0, 100 mM bistrispropane pH 6.0, 100 mM bistrispropane pH 6.5, 100 mM bistrispropane pH 7.0, 100 mM bistrispropane pH 7.5, 100 mM bistrispropane pH 8.0). After 18 hours at room temperature the samples were centrifuged and the polypeptide concentration determined by HPLC.

With `CC(C)C[C@H](NC(=O)[C@H](CCCNC(=N)N)NC(=O)[C@H](CCC(N)=O)NC(=O)[C@@H](NC(=O)[C@H](C)NC(=O)[C@@H]1CSSC[C@H](NC(=O)[C@@H](N)CCCCNC(=O)CC[C@H](NC(=O)CCCCCCCCCCCCCCCCCCC(=O)O)C(=O)O)C(=O)N[C@@H](CC(N)=O)C(=O)N[C@@H]([C@@H](C)O)C(=O)N[C@@H](C)C(=O)N[C@@H]([C@@H](C)O)C(=O)N1)[C@@H](C)O)C(=O)N[C@@H](C)C(=O)N[C@@H](CCC(=O)O)C(=O)N[C@@H](Cc1ccccc1)C(=O)N[C@@H](CC(C)C)C(=O)N[C@@H](Cc1c[nH]cn1)C(=O)N[C@@H](Cc1c[nH]cn1)C(=O)N[C@@H](CO)C(=O)N[C@@H](CO)C(=O)N[C@@H](CCC(N)=O)C(=O)N[C@@H](CC(N)=O)C(=O)N[C@@H](Cc1ccccc1)C(=O)NCC(=O)N[C@@H](C)C(=O)N1CCC[C@H]1C(=O)N[C@@H](CC(C)C)C(=O)N[C@@H](CO)C(=O)N[C@@H](CO)C(=O)N[C@H](C(=O)N[C@@H](CC(N)=O)C(=O)N[C@H](C(=O)NCC(=O)N[C@@H](CO)C(=O)N[C@@H](CC(N)=O)C(=O)N[C@H](C(=O)N1CCC[C@H]1C(N)=O)[C@@H](C)O)C(C)C)[C@@H](C)O` [Example 151, N-epsilon1-[(S)-4-Carboxy-4-(19-carboxynonadecanoylamino)butyryl]-[Glu14,His17,Gln21,Ala25,Pro26,Ser28,Ser29,Pro37]-pramlintide] (H-K([γGlu-C20 diacid])CNTATCATQRLAEFLHHSSQNFGAPLSSTNVGSNTP-NH2; disulfide 2-7 (inferred); N-terminus assumed), the EC50 in data set [1] (Table 7, human calcitonin (CTa) receptor) was determined as 0.0675 nM; in data set [1] (Table 11, human calcitonin receptor, read-out: CTa receptor human EC50) it was 0.0675 nM; in data set [2] it was 0.209 nM; in data set [2] (Table 4), 0.209 nM; in data set [2] (Table 6, human amylin receptor), 0.209 nM; in data set [2] (Table 7, human amylin receptor), 0.209 nM. Besides, the half-maximal effective concentration (EC50) in data set [2] (Table 11, human amylin receptor) came to 0.209 nM. Also, the solubility at 18 h in data set [3] (bistrispropane buffer, pH 6.5, read-out: Solubility) is greater than 200 µM; in data set [3] (bistrispropane buffer, pH 7.5, read-out: Solubility), greater than 200 µM; in data set [3] (bistrispropane buffer, pH 6.0, read-out: Solubility) it was greater than 200 µM; in data set [3] (bistrispropane buffer, pH 7.0, read-out: Solubility pH 7.0), greater than 200 µM; in data set [3] (bistrispropane buffer, pH 8.0, read-out: Solubility) it was greater than 200 µM; in data set [3] (glycylglycine buffer, pH 3.0, read-out: Solubility), greater than 200 µM. Moreover, the solubility at 18 h in data set [3] (glycylglycine buffer, pH 4.0, read-out: Solubility pH 4.0) is greater than 200 µM; in data set [3] (glycylglycine buffer, pH 5.0, read-out: Solubility) it was greater than 200 µM; in data set [3] (pH 4.0, read-out: Solubility), greater than 200 µM; in data set [3] (pH 7.0, read-out: Solubility), greater than 200 µM.
